Source: publication PMC3397457, “Preclinical Evaluation of Anticancer Efficacy and Pharmacological Properties of FBA-TPQ, a Novel Synthetic Makaluvamine Analog” (Marine Drugs, 2012)

Key:
HPAC cells [1] = test: Annexin V apoptosis assay/flow cytometry, HPAC; format: cell-based, human; conditions: 1 µM, 48 h
Procedure: (§1) The apoptotic cells were detected using a method reported previously. […] In HPAC cells, a 1 µM concentration of FBA-TPQ increased the apoptotic index two-fold higher than that seen in control cells (P < 0.01). […] In the Mia PaCa-2 cells, FBA-TPQ at 1 µM led to a three-fold increase in apoptosis (P < 0.01).
(§2) Following a similar protocol as above, cells in early and late stages of apoptosis were detected using an Annexin V-FITC apoptosis detection kit from BioVision (Mountain View, CA, USA), according to the manufacturer’s protocol. For apoptosis experiments, 2–3 × 10^5 cells were exposed to the test compound (0, 0.1, 0.5 and 1.0 µM) and incubated for 48 h prior to analysis. Cells were collected and washed with serum-free media. Cells were then re-suspended in 500 µL of Annexin V binding buffer followed by addition of 5 µL of Annexin V-FITC and 5 µL of propidium iodide (PI). The samples were incubated in the dark for 5 min at room temperature and analyzed with a Becton Dickinson FACSCalibur instrument (Ex = 488 nm; Em = 530 nm). Cells that were positive for Annexin V-FITC alone (early apoptosis) and Annexin V-FITC and PI (late apoptosis) were counted. The apoptotic index was calculated against the untreated control cells.

[2] = Stability in plasma and tissue samples; format: in vitro ADME, mouse; conditions: RE within ±15%
Procedure: The stability of FBA-TPQ was evaluated at two concentrations (0.5 and 5.0 µM). […] At the designated time points, the samples were extracted and analyzed using the established RRLC analytical method. The stability of FBA-TPQ was assessed by comparing the initial concentration (time 0) with the final concentration following incubation of the compound at the noted temperatures, and expressing this difference as a percentage of the initial concentration.

HPAC cells [3] = test: Cell cycle distribution by flow cytometry, HPAC; format: cell-based, human; conditions: 1 µM
Procedure: The effects of FBA-TPQ on cell cycle distribution were analyzed using the previously reported methods; its effects appeared to be cell-line-dependent (Figure 2c). […] The differences in the responses of the different cell lines may be related to their expression of p53.
To determine the effect of FBA-TPQ on the cell cycle, cells (2–3 × 10^5) were exposed to the test compounds (0, 0.1, 0.5 or 1 µM) and incubated for 24 h prior to analysis. Cells were trypsinized, washed with PBS, and fixed in 1.5 mL of 95% ethanol and 0.5 mL of 0.9% saline solution at 4 °C overnight, followed by incubation with RNAse and staining with propidium iodide (Sigma). The DNA content was determined by flow cytometry. The cell cycle distribution was evaluated by comparing with that of the control cells.

[4] = test system: murine hepatic S9 fractions containing Phase I and II metabolic enzymes; test: S9 metabolism; format: in vitro ADME; conditions: mouse hepatic S9, 10 μM, 60 min incubation
Procedure: As a preliminary study of the metabolism of FBA-TPQ, the compound was incubated with S9 fractions containing Phase I and Phase II metabolic enzymes and their co-factors for 15, 30, 45, or 60 min. […] No specific peaks that seemed to correspond to unique metabolites were identified using the current RRLC method.
A preliminary study of the metabolism of FBA-TPQ was done using murine hepatic S9 fractions containing Phase I and II metabolic enzymes. […] Duplicate aliquots of the mixtures were taken at 0, 15, 30, 45, and 60 min, and the samples were processed and analyzed. The percent of FBA-TPQ that was metabolized by Phase I and Phase II enzymes was calculated by comparing the initial concentration of the iminoquinone to the measured concentration following incubation.

[5] = test system: prostate, breast, and ovarian cancer cell lines; set-up: method as in PMID 19274441, PMID 19451594, PMID 21673964; conditions: cited from earlier work
Panc-1 xenograft tumors = test: Panc-1 xenograft model in nude mice; format: in vivo; conditions: for inhibition of tumor growth: 5 days/week, vs control group
Procedure: Since it exerted potent effects in vitro, we determined whether FBA-TPQ could also show anti-tumor effects in vivo. Nude mice bearing Panc-1 xenograft tumors were treated with vehicle or FBA-TPQ at 5 or 10 mg/kg/day, 5 days per week.
Figure 3 In vivo effects of FBA-TPQ administered to nude mice bearing Panc-1 xenograft tumors. (a) FBA-TPQ was administered by intraperitoneal (ip) injection at doses of 5 mg/kg/day, 5 days/week for 3 weeks and 10 mg/kg/day, 5 days/week for 2 weeks, tumors were measured […]; (b) At the end of the experiment, representative tumors were removed and photographed; (c) Animals were also monitored for changes in body weight as a surrogate marker for toxicity.
The animal use and care protocol was approved by the Institutional Animal Use and Care Committee of Texas Tech University Health Sciences Center. Female athymic pathogen-free nude mice (nu/nu, 4–6 weeks) were purchased from the Charles River Laboratories International. Inc. (Wilmington, MA, USA). To establish Panc-1 human pancreatic cancer xenograft tumors, cultured Panc-1 cells were harvested from monolayer cultures, washed twice with serum-free medium, re-suspended and injected sc (5 × 10^6 cells, total volume 0.2 mL) into the left inguinal area of the mice. All animals were monitored for activity, physical condition, body weight, and tumor growth. Tumor size was determined every other day by caliper measurement of two perpendicular diameters of the implant. Tumor mass (in g) was calculated by the formula, 1/2a × b^2 where “a” is the long diameter and “b” is the short diameter (in cm).
The animals bearing human cancer xenografts were randomly divided into various treatment groups and a control group (7–10 mice/group). The untreated control group received the vehicle only. For the Panc-1 xenograft model, FBA-TPQ was dissolved in PEG400: ethanol: saline (57.1: 14.3: 28.6, v/v/v),and was administered by intraperitoneal (ip) injection at doses of 5 and 10 mg/kg/d, 5 d/wk for 3 weeks.

Mia PaCa-2 cells = test: Annexin V apoptosis assay/flow cytometry, Mia PaCa-2; format: cell-based, human; conditions: Mia PaCa-2, 1 µM, 48 h
Procedure: as §1, §2

O=C1C(NCc2ccc(F)cc2)=CC2=NCCc3c[nH]c1c32 [FBA-TPQ, 7-(4-fluorobenzylamino)-1,3,4,8-tetrahydropyrrolo[4,3,2-de]quinolin-8(1H)-one]
increase of apoptotic index vs control cells (HPAC cells [1]): two-fold
stability in plasma and tissue samples ([2]; 3 months at −80 °C): stable
stability in plasma and tissue samples ([2]; 2 h at 22 °C following three freeze/thaw cycles (−20 to 22 °C)): stable
stability in plasma and tissue samples ([2]; 24 h after preparation at 22 °C, low and high concentrations): stable
cell cycle arrest (HPAC cells [3]): arrest in the G2/M phase
compound metabolized by Phase I components [4]: approximately 14.3%
compound metabolized by Phase II components [4]: ~1.8%
IC50 values [5]: nanomolar/low micromolar
inhibition of tumor growth (Panc-1 xenograft tumors; 5 mg/kg/day ip): 77.8%
inhibition of tumor growth (Panc-1 xenograft tumors; 10 mg/kg/day ip): 90.1%
host toxicity (body weight as surrogate marker) (Panc-1 xenograft tumors; 5 and 10 mg/kg/day ip): No significant host toxicity
tumor regression/remission (Panc-1 xenograft tumors; both treated groups (5 and 10 mg/kg/day ip)): significant tumor regression or complete remission
increase in apoptosis vs control cells (Mia PaCa-2 cells): three-fold
